Experiments:
Type in all cases: cell-based
Details in all cases: 24 h incubation, visual reading
[1] = system: Staphylococcus aureus MRSA ATCC 43300; test: MIC assay, S. aureus MRSA ATCC 43300
Procedure: (§1) Antimicrobial activity of compounds was tested against a number of bacterial strains, including Staphylococcus aureus (MRSA ATCC 43300, GISA NRS17, VISA NRS1, MRSA clinical isolate, daptomycin resistant clinical isolate), Streptococcus pneumoniae (MDR ATCC 700677), Enterococcus faecalis (VanA clinical isolate) and Enterococcus faecium (MDR Van A ATCC 51559).
(§2) All compounds were prepared to 160 μg/ml solution in water from a stock solution of 1 mM concentration.
(§3) The compounds, along with standard antibiotics were serially diluted twofold across the wells of 96-well non-binding surface plates (NBS, Corning). Standards ranged from 64 μg/ml to 0.03 μg/ml and compounds from 8 μg/ml to 0.003 μg/ml with final volumes of 50 μL per well. Gram positive bacteria were cultured in Muller Hinton broth (MHB) (Bacto laboratories, Cat. no. 211443) at 37° C. overnight. A sample of each culture was then diluted 40-fold in fresh MHB broth and incubated at 37° C. for 2-3 hrs. The resultant mid-log phase cultures were diluted to the final concentration of 5×10e5 CFU/mL, then 50 μL was added to each well of the compound-containing 96-well plates. All the plates were covered and incubated at 37° C. for 24 h. MICs were the lowest concentration showing no visible growth.
(§4) MICs were determined visually at 24 hr incubation and the MIC was defined as the lowest concentration with which no growth was visible after incubation. Both MIC and MBC were determined by visual inspection only.

[2] = system: Streptococcus pneumoniae MDR ATCC 700677; test: MIC assay, S. pneumoniae MDR ATCC 700677
Procedure: as §1, §2, §3, §4

[3] = system: Enterococcus faecium MDR Van A ATCC 51559; test: MIC assay, E. faecium MDR Van A ATCC 51559
Procedure: as §1, §2, §3, §4

Minimum Inhibitory Concentration (MIC) Staph. aureus ATCC43300 [1]	Minimum Inhibitory Concentration (MIC) S. pneumoniae ATCC 700677 [2]	Minimum Inhibitory Concentration (MIC) E. faecium ATCC51559 [3]	Compound
xxx (xxx = 0.1-<1)	xxx (xxx = 0.1-<1)	x (x = >4)	CNC(CC(C)C)C(=O)NC1C(=O)NC(CC(N)=O)C(=O)NC2C(=O)NC3C(=O)NC(C(=O)NC(C(=O)NCCCCC(NC(=O)C(CCCCN)NC(=O)C(CCCCN)NC(=O)C(CCCCN)NC(=O)c4ccc(Oc5ccccc5)cc4)C(=O)O)c4cc(O)cc(O)c4-c4cc3ccc4O)C(O)c3ccc(c(Cl)c3)Oc3cc2cc(c3OC2OC(CO)C(O)C(O)C2OC2CC(C)(N)C(O)C(C)O2)Oc2ccc(cc2Cl)C1O (centres unmarked) [MCC_000194]
xxxxx (xxxxx = <0.01)	xxxxx (xxxxx = <0.01)	xxx (xxx = 0.1-<1)	CCCCCCCCCCCCCC(=O)N[C@@H](CCCCN)C(=O)N[C@@H](CCCCN)C(=O)N[C@@H](CCCCNC(=O)[C@H]1NC(=O)[C@H]2NC(=O)[C@H](NC(=O)[C@@H]3NC(=O)[C@H](CC(N)=O)NC(=O)[C@H](NC(=O)[C@@H](CC(C)C)NC)[C@H](O)c4ccc(c(Cl)c4)Oc4cc3cc(c4O[C@@H]3O[C@H](CO)[C@@H](O)[C@H](O)[C@H]3O[C@H]3C[C@](C)(N)[C@H](O)[C@H](C)O3)Oc3ccc(cc3Cl)[C@H]2O)c2ccc(O)c(c2)-c2c(O)cc(O)cc21)C(=O)NC [MCC_000224]
xxx (xxx = 0.1-<1)	xxx (xxx = 0.1-<1)	x (x = >4)	CCCCCCCCCCC(=O)N[C@@H](CCCCN)C(=O)N[C@@H](CCCCN)C(=O)N[C@@H](CCCCNC(=O)CNC(=O)[C@H]1NC(=O)[C@H]2NC(=O)[C@H](NC(=O)[C@@H]3NC(=O)[C@H](CC(N)=O)NC(=O)[C@H](NC(=O)[C@@H](CC(C)C)NC)[C@H](O)c4ccc(c(Cl)c4)Oc4cc3cc(c4O[C@@H]3O[C@H](CO)[C@@H](O)[C@H](O)[C@H]3O[C@H]3C[C@](C)(N)[C@H](O)[C@H](C)O3)Oc3ccc(cc3Cl)[C@H]2O)c2ccc(O)c(c2)-c2c(O)cc(O)cc21)C(=O)O [MCC_000225]
xxxxx (xxxxx = <0.01)	xxxxx (xxxxx = <0.01)	xxxx (xxxx = 0.01-<0.1)	CCCCCCCCCCCCCC(=O)N[C@@H](CCCN)C(=O)N[C@@H](CCCN)C(=O)NCC(=O)NCCNC(=O)[C@H]1NC(=O)[C@H]2NC(=O)[C@H](NC(=O)[C@@H]3NC(=O)[C@H](CC(N)=O)NC(=O)[C@H](NC(=O)[C@@H](CC(C)C)NC)[C@H](O)c4ccc(c(Cl)c4)Oc4cc3cc(c4O[C@@H]3O[C@H](CO)[C@@H](O)[C@H](O)[C@H]3O[C@H]3C[C@](C)(N)[C@H](O)[C@H](C)O3)Oc3ccc(cc3Cl)[C@H]2O)c2ccc(O)c(c2)-c2c(O)cc(O)cc21 [MCC_000228]
xxxxx (xxxxx = <0.01)	xxxx (xxxx = 0.01-<0.1)	xxx (xxx = 0.1-<1)	CNC(CC(C)C)C(=O)NC1C(=O)NC(CC(N)=O)C(=O)NC2C(=O)NC3C(=O)NC(C(=O)NC(C(=O)NCCCCC(NC(=O)C(CCCCN)NC(=O)C(CCCCN)NC(=O)C(CCCCN)NC(=O)C(CCCCNC(=O)c4ccc(Oc5ccccc5)cc4)NC(=O)c4ccc(Oc5ccccc5)cc4)C(=O)O)c4cc(O)cc(O)c4-c4cc3ccc4O)C(O)c3ccc(c(Cl)c3)Oc3cc2cc(c3OC2OC(CO)C(O)C(O)C2OC2CC(C)(N)C(O)C(C)O2)Oc2ccc(cc2Cl)C1O (centres unmarked) [MCC_000230]
xx (xx = 1-4)	xx (xx = 1-4)	x (x = >4)	CCCCCCCCCCC(=O)NCCCC[C@H](NC(=O)CCCCCCCCCC)C(=O)N[C@@H](CCCCN)C(=O)N[C@@H](CCCCN)C(=O)N[C@@H](CCCCNC(=O)[C@H]1NC(=O)[C@H]2NC(=O)[C@H](NC(=O)[C@@H]3NC(=O)[C@H](CC(N)=O)NC(=O)[C@H](NC(=O)[C@@H](CC(C)C)NC)[C@H](O)c4ccc(c(Cl)c4)Oc4cc3cc(c4O[C@@H]3O[C@H](CO)[C@@H](O)[C@H](O)[C@H]3O[C@H]3C[C@](C)(N)[C@H](O)[C@H](C)O3)Oc3ccc(cc3Cl)[C@H]2O)c2ccc(O)c(c2)-c2c(O)cc(O)cc21)C(=O)O [MCC_000231]
xxxx (xxxx = 0.01-<0.1)	xxxx (xxxx = 0.01-<0.1)	xx (xx = 1-4)	CCCCCCCCCCC(=O)N[C@@H](CCCCN)C(=O)N[C@@H](CCCCN)C(=O)N[C@@H](CCCCNC(=O)[C@H]1NC(=O)[C@H]2NC(=O)[C@H](NC(=O)[C@@H]3NC(=O)[C@H](CC(N)=O)NC(=O)[C@H](NC(=O)[C@@H](CC(C)C)NC)[C@H](O)c4ccc(c(Cl)c4)Oc4cc3cc(c4O[C@@H]3O[C@H](CO)[C@@H](O)[C@H](O)[C@H]3O[C@H]3C[C@](C)(N)[C@H](O)[C@H](C)O3)Oc3ccc(cc3Cl)[C@H]2O)c2ccc(O)c(c2)-c2c(O)cc(O)cc21)C(=O)NC [MCC_000292]
xxxxx (xxxxx = <0.01)	xxxxx (xxxxx = <0.01)	xxx (xxx = 0.1-<1)	CCCCCCCCCCC(=O)N[C@@H](CCCCN)C(=O)N[C@@H](CCCCN)C(=O)N[C@@H](CCCCN)C(=O)N[C@@H](CCCCNC(=O)[C@H]1NC(=O)[C@H]2NC(=O)[C@H](NC(=O)[C@@H]3NC(=O)[C@H](CC(N)=O)NC(=O)[C@H](NC(=O)[C@@H](CC(C)C)NC)[C@H](O)c4ccc(c(Cl)c4)Oc4cc3cc(c4O[C@@H]3O[C@H](CO)[C@@H](O)[C@H](O)[C@H]3O[C@H]3C[C@](C)(N)[C@H](O)[C@H](C)O3)Oc3ccc(cc3Cl)[C@H]2O)c2ccc(O)c(c2)-c2c(O)cc(O)cc21)C(=O)NC [MCC_000309]
xxxxx (xxxxx = <0.01)	xxxxx (xxxxx = <0.01)	xxxx (xxxx = 0.01-<0.1)	CNC(=O)C(CCCCNC(=O)C1NC(=O)C2NC(=O)C(NC(=O)C3NC(=O)C(CC(N)=O)NC(=O)C(NC(=O)C(CC(C)C)NC)C(O)c4ccc(c(Cl)c4)Oc4cc3cc(c4OC3OC(CO)C(O)C(O)C3OC3CC(C)(N)C(O)C(C)O3)Oc3ccc(cc3Cl)C2O)c2ccc(O)c(c2)-c2c(O)cc(O)cc21)NC(=O)C(CCCCN)NC(=O)C(CCCCN)NC(=O)C(CCCCN)NC(=O)C(CCCCNC(=O)c1ccc(Oc2ccccc2)cc1)NC(=O)c1ccc(Oc2ccccc2)cc1 (centres unmarked) [MCC_000316]
xxxxx (xxxxx = <0.01)	xxxxx (xxxxx = <0.01)	xxxx (xxxx = 0.01-<0.1)	CCCCCCCCCCCCCC(=O)N[C@@H](CCCCN)C(=O)N[C@@H](CCCCN)C(=O)N[C@@H](CCCCN)C(=O)N[C@@H](CCCCNC(=O)[C@H]1NC(=O)[C@H]2NC(=O)[C@H](NC(=O)[C@@H]3NC(=O)[C@H](CC(N)=O)NC(=O)[C@H](NC(=O)[C@@H](CC(C)C)NC)[C@H](O)c4ccc(c(Cl)c4)Oc4cc3cc(c4O[C@@H]3O[C@H](CO)[C@@H](O)[C@H](O)[C@H]3O[C@H]3C[C@](C)(N)[C@H](O)[C@H](C)O3)Oc3ccc(cc3Cl)[C@H]2O)c2ccc(O)c(c2)-c2c(O)cc(O)cc21)C(=O)NC [MCC_000343]
xxxxx (xxxxx = <0.01)	xxxxx (xxxxx = <0.01)	xxxx (xxxx = 0.01-<0.1)	CCCCCCCCCCCCCC(=O)N[C@@H](CCCCN)C(=O)N[C@@H](CCCCN)C(=O)NCCCNC(=O)[C@H]1NC(=O)[C@H]2NC(=O)[C@H](NC(=O)[C@@H]3NC(=O)[C@H](CC(N)=O)NC(=O)[C@H](NC(=O)[C@@H](CC(C)C)NC)[C@H](O)c4ccc(c(Cl)c4)Oc4cc3cc(c4O[C@@H]3O[C@H](CO)[C@@H](O)[C@H](O)[C@H]3O[C@H]3C[C@](C)(N)[C@H](O)[C@H](C)O3)Oc3ccc(cc3Cl)[C@H]2O)c2ccc(O)c(c2)-c2c(O)cc(O)cc21 [MCC_000345]
xxxx (xxxx = 0.01-<0.1)	xxxxx (xxxxx = <0.01)		CCCCCCCCCCCCCC(=O)NCC(=O)N[C@@H](CO)C(=O)N[C@@H](CCCCN)C(=O)N[C@@H](CCCCN)C(=O)N[C@@H](CCCCN)C(=O)N[C@@H](CCCCNC(=O)[C@H]1NC(=O)[C@H]2NC(=O)[C@H](NC(=O)[C@@H]3NC(=O)[C@H](CC(N)=O)NC(=O)[C@H](NC(=O)[C@@H](CC(C)C)NC)[C@H](O)c4ccc(c(Cl)c4)Oc4cc3cc(c4O[C@@H]3O[C@H](CO)[C@@H](O)[C@H](O)[C@H]3O[C@H]3C[C@](C)(N)[C@H](O)[C@H](C)O3)Oc3ccc(cc3Cl)[C@H]2O)c2ccc(O)c(c2)-c2c(O)cc(O)cc21)C(=O)O [MCC_000380]
